In US20220153780A1, “SALT FORMS OF S-(N, N-DIETHYLCARBAMOYL)GLUTATHIONE” (Tonix Pharma Holdings Limited, priority 2019, published 2022):
Entries after “also recorded” stand apart in the source; their conditions may differ.

Experiments:
Type in all cases: physicochemical
[1] = Water solubility observed in slurry experiment in water; conditions: room temperature; equimolar L-lysine adduct
Method: (§1) Carbamathione (50 mg) and one equivalent of L-Lysine were weighed in an 8-mL glass vial. Water (1-2 mL) was added and the mixture was allowed to stir for 24 hours. The equimolar mixture of carbamathione and L-Lysine was soluble in water and no precipitate was observed after 24 hours of stirring. The solution was left to evaporate at high temperature (60° C.) and an off-white solid was isolated. XRPD analysis confirmed the recovery of new derivative TNX1001-LLYS-NP01 (FIG. 15).
The synthesis of the new derivative, TNX1001-LLYS-NP01, was carried out to facilitate its complete characterization. TNX1001-SM (150 mg) and L-Lysine (1 eq., 54 mg) were accurately weighed in a vial equipped with a magnetic stirring bar. H2O (3 ml) was added and the mixture was stirred at room temperature for 4 hours until a clear solution was obtained. The solution was filtered through a 0.45 μm RC-filter and the filtrate was evaporated at high temperature (60° C.). The recovered off-white solid was compared with the sample that was obtained from the slurry experiments in water by XRPD analysis to confirm the recovery of desired derivative (FIG. 26). The product was completely characterized using the methods outlined in Table 8 (see FIGS. 27-33).

[2] = Dynamic vapor sorption (DVS) analysis
Method: The anhydrous carbamathione lysine salt (TNX1001-LLYS-NP01) was subjected to dynamic vapor sorption (DVS) analysis (FIG. 35). […] Similarly, the desorption curves display a clear decrease in mass between 30% and 20% RH. This behavior is consistent with a compound forming a hydrate species. Additionally, based on the water uptake of approximately 6.1% w/w at 70% RH, the hydrated form of the salt is likely a dihydrate species (FIG. 36).
The sorption/desorption cycle was performed twice.

[3] = Solid form stability by XRPD (ambient conditions, humidity, drying)
Method: as §1
After 24 hours of stirring, the solid was collected and analyzed by XRPD, and a new diffraction pattern was observed (FIG. 18). This new pattern was labeled as TNX1001-LLYS-NP02. […] After the drying step, the sample was exposed to humidity for 24 hours and the diffractogram acquired again.
From the experiments carried out with L-lysine in organic media, a second new diffraction pattern was also observed, in particular when an equimolar mixture of TNX1001-SM and L-lysine co-former was slurried at room temperature for 24 hours in Methanol or Dichloromethane (TNX1001-LLYS-NP02).

[4] = Stability studies, one month storage at controlled temperature and humidity, XRPD
Method: Approximately 50 mg of the anhydrous carbamathione lysine salt was placed in a glass vial crimped with a PTFE/silicone septum and stored at the desired temperature and humidity for one month. Controlled humidity was realized employing saturated solutions of salts: NaCl for 75% RH at 40° C. and NaBr for 60% RH at 25° C. After storage, the samples were analyzed by XRPD analysis. Each stability test was performed in duplicate.

[5] = Dissolution temperature in buffers (Crystal16) and estimated solubility at 25° C.
Method: Three different buffer solutions were prepared according to European Pharmacopoeia procedures (pH 1.2), or by diluting commercially available concentrate buffer solutions (pH 4.5 and 6.8).
Phosphate buffer at pH 6.8 was prepared by diluting a commercially available concentrate solution (Reagecon) with HPLC grade water. The final pH was adjusted using a 1 M NaOH solution.
Acetate buffer at pH 4.5 was prepared by diluting a commercially available concentrate solution (Reagecon) with HPLC grade water. The final pH was adjusted using concentrated acetic acid and a 1 M NaOH solution.
A buffer at pH 1.2 was prepared by mixing NaCl (0.2 M, 125 mL) and HCl (0.2 M, 212.5 mL) solutions followed by adjusting the volume to 500 mL. The pH was adjusted with a 1 M NaOH solution.
The determination of the dissolution temperature was performed in the automatic reactor system Crystal16. The system allows for careful control of the temperature and is equipped with a turbidimeter enabling the detection of the complete dissolution of the solid. The proper amount of compound was accurately weighted in a 1.5 mL vial equipped with a magnetic stirring bar. The selected buffer solution was pre-cooled in a refrigerator and the proper volume was added to the vial. The suspension was placed in the automatic reactor system pre-cooled at 10° C. and stirred at 600 rpm. The temperature was kept constant for 5 minutes to allow the system to equilibrate. The temperature was then increased at 0.5° C./min until a clear solution was obtained. For each pH, four solutions with increasing concentration were prepared and subjected to the same temperature program.
Although this is incorrect from a theoretical point of view, the closeness of the experimental value at 24° C. limited the error made by using this simple approximation.
Although this is incorrect from a theoretical point of view, the closeness of the experimental value at 26° C. limited the error made by using this simple approximation.

water solubility as compared to free carbamathione [1]: clear improvement
water uptake (DVS) ([2]; at 70% RH): approximately 6.1 % w/w
water uptake and water release over two sorption/desorption cycles ([2]; hydrated and anhydrous species): reversibly
stability of the solid form under ambient conditions (XRPD) ([3]; after 24 hours and up to 4 days): good stability; also recorded: stable
solid state stability (XRPD) ([4]; one month at 25° C. and 60% RH): stable
solid state stability (XRPD) ([4]; one month at 40° C. and 75% RH): stable
Solubility TNX1001-LYS ([5]; pH 1.2): Not stable. TNX1001
stability in buffer ([5]; pH 1.2 (NaCl/HCl buffer), converted into the parent carbamathione): not stable
Tdiss. ([5]; pH 1.2 buffer, Conc. TNX1001-LYS 297 mg/mL (79 after dilution)): Dissolve and re-precipitate
Tdiss. ([5]; pH 1.2 buffer, Conc. TNX1001-LYS 349 mg/mL, after dilution to 93 mg/mL): Dissolves above 80 °C
Tdiss. ([5]; pH 1.2 buffer, Conc. TNX1001-LYS 400 mg/mL, after dilution to 107 mg/mL): Dissolves above 80 °C
Tdiss. ([5]; pH 1.2 buffer, Conc. TNX1001-LYS 455 mg/mL, after dilution to 121 mg/mL): Dissolves above 80 °C
solubility increase compared with free carbamathione ([5]; pH 4.5, 25° C.): approximately 17%
Solubility TNX1001-LYS ([5]; pH 4.5, 25° C., estimated by linear approximation, equivalent amount of TNX1001 dissolved): 299 mg/mL of TNX1001
Tdiss. ([5]; pH 4.5 acetate buffer, Conc. TNX1001-LYS 249 mg/mL): <10 °C
Tdiss. ([5]; pH 4.5 acetate buffer, Conc. TNX1001-LYS 299 mg/mL): 16 °C
Tdiss. ([5]; pH 4.5 acetate buffer, Conc. TNX1001-LYS 356 mg/mL): 26 °C
Tdiss. ([5]; pH 4.5 acetate buffer, Conc. TNX1001-LYS 401 mg/mL): 33 °C
solubility increase compared with free carbamathione ([5]; pH 6.8, 25° C.): approximately 10%
Solubility TNX1001-LYS ([5]; pH 6.8, 25° C., estimated by linear approximation, equivalent amount of TNX1001 dissolved): 255 mg/mL of TNX1001
Tdiss. ([5]; pH 6.8 phosphate buffer, Conc. TNX1001-LYS 199 mg/mL): <10 °C
Tdiss. ([5]; pH 6.8 phosphate buffer, Conc. TNX1001-LYS 223 mg/mL): <10 °C
Tdiss. ([5]; pH 6.8 phosphate buffer, Conc. TNX1001-LYS 340 mg/mL): 24 °C
Tdiss. ([5]; pH 6.8 phosphate buffer, Conc. TNX1001-LYS 397 mg/mL): 33 °C
SMILES: CCN(CC)C(=O)SC[C@H](NC(=O)CC[C@H](N)C(=O)O)C(=O)NCC(=O)O.NCCCC[C@H](N)C(=O)O [TNX1001-LLYS-NP01]
solid form after exposure of the dried sample to humidity (XRPD) ([3]; approximately 24 hours, ambient conditions): converted spontaneously to initial form TNX1001-LLYS-NP02; also recorded: reconversion of the NP01 form into the NP02 form
